pIC50, pKi: −log10 of the molar value. Several values for one entry are separate records, joined by “and”; a condition that tells them apart may be missing. Equal entries are not always repeated. Where two headings read alike, the source gives them in different places.

The values below come from patent publication US9371337B2, “β-lactamase inhibitors” (The Regents of the University of California, priority 2011, dated 2016).

Data set [1] addresses T1, AmpC β-lactamase (Escherichia coli, UniProt P00811).
T1 construct: made in house
In words: biochemical. The class given is biochemical. The protocol:
FIG. 18. Representative IC50 curves. […] IC50 curves were obtained by measuring rates (in duplicates) at different inhibitor concentrations (x-axis) and by determining the residual activity (y-axis, in percentage). IC50 values were determined by non-linear regression and Ki values calculated using GraphPad software assuming competitive inhibition.
Sulfonamidomethaneboronic acids were dissolved in 100% DMSO at a concentration of 100 mM; more diluted stocks were prepared as necessary. […] The enzyme was expressed and purified as described (Usher, K. C. et al., Biochemistry 1998, 37, 16082-16092) and CENTA was purchased from Tydock Pharma.
Kinetic measurements were run at room temperature in 50 mM sodium-cacodylate pH 6.5 in the presence of 0.01% Triton-X to prevent non-specific inhibition via compound aggregation. […] (Kettner, C. A. and Shenvi, A. B., J. Biol. Chem. 1984, 259, 15106-15114) Reactions were performed in 1 mL cuvettes with 60 μM CENTA and initiated by adding 1.2 nM enzyme. […] (Weston, G. S. et al., J. Med. Chem. 1998, 41, 4577-4586) The first 180 sec of each reaction were used to measure initial rates. IC50 values were obtained by fitting binding data to a sigmoidal dose-response equation using GraphPad Prism (GraphPad software, Inc). Ki values were determined by the use of Cheng-Prusoff equation. (Cheng, Y. and Prusoff, W. H., Biochem. Pharmacol. 1973, 22, 3099-3108)

The target of a further data set is CTX-M-9 β-lactamase (Escherichia coli, UniProt Q9L5C8). In words: biochemical. The class given is biochemical. The note with it: for Selectivity vs AmpC (comparison of IC50 values): Table 4h, CTX-M-9 vs AmpC; for potency estimated from few doses: read-out: IC50 (Estimated from single concentration measurement); for inhibition at 16 µM: read-out: Percentage inhibition with 16 μM inhibitor. As to the method: Reactions were initiated by the addition of 0.3 nM enzyme and monitored at 405 nm.
(§1) To assess the selectivity of the new molecules we determined Ki values against three common serine proteases, Trypsin, Elastase and α-Chymotrypsin, as well as that of a class A β-lactamase, CTX-M-9 (Table 10) (Pouvreau L, et al. (1998), FEBS Lett 423:167-172; Del Mar E G, et al. (1980), Biochemistry 19:468-472; Rodriguez-Martinez J A, et al. (2009), Biotechnol Lett 31:883-887; Chen Y, et al. (2005), J Mol Biol 348:349-362).

Data set [2] concerns the target T2, α-chymotrypsin (bovine pancreatic) (Bos taurus, UniProt P00766).
T2 construct: purchased Sigma-Aldrich
As to the kind of experiment: α-Chymotrypsin inhibition. The note with it: for activity at 100 µM: Table 4b, 100 μM inhibitor, read-out: Percentage activity with 100 μM inhibitor; for potency estimated from few doses: Table 4e, read-out: IC50 (Estimated from single concentration measurement); for pKi: Table 10, α-Chymotrypsin; for Selectivity vs AmpC (comparison of IC50 values): Table 4h, Chymotrypsin vs AmpC; for inhibition at 100 µM: read-out: Percentage inhibition with 100 μM inhibitor. The format is biochemical. As to the method: α-Chymotrypsin assays were performed in 50 mM Tris buffer pH 7.5 with 0.01% Triton-X. Inhibitor and 0.001 mg/mL enzyme were incubated at their final concentration for 10 min before the reaction was initiated by the addition of 200 μM N-succinyl-Ala-Ala-Pro-Phe p-nitroanilide and monitored at 410 nm.
as §1

Data set [3] addresses T3, Trypsin (UniProt P00760).
T3 construct: IC50 (Estimated from single concentration measurement); Ki
T3 sequence (P00760 1-246): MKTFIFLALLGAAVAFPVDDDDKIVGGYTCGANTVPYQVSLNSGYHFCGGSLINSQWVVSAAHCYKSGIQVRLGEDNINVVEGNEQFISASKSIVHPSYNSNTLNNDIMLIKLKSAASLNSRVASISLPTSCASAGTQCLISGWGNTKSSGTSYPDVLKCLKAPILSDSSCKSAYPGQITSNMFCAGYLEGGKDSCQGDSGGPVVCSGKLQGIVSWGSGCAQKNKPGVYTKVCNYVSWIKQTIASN
As to the kind of experiment: Trypsin inhibition. The note with it: Table 10, Trypsin. The class given is biochemical.
Source text: as §1

Another data set deals with Elastase. In words: Elastase inhibition. The note with it: Table 4h, Elastase vs AmpC. The class given is biochemical.
Source text: as §1

Data set [4] deals with clinical strains resistant to third-generation cephalosporins. As to the kind of experiment: MIC distribution of third-generation cephalosporins alone or with compounds over clinical strains. The class given is cell-based. The note with it: for clinical isolates for which MICs dropped into the susceptible range (MICs≦1 μg/mL): cephalosporins combined with the compound; for MIC 25% percentile / MIC 75% percentile: third-generation cephalosporins in combination with the compound. As to the method: The anti-resistance activity of inhibitors was investigated by the determination of the minimum inhibitory concentrations (MICs) of the β-lactam/inhibitor combination necessary to inhibit the growth of clinically-isolated bacteria resistant to third-generation cephalosporins via expression of class A or class C β-lactamases (Table 6).
Susceptibility testing was performed and interpreted following the guidelines of CLSI. (Clinical and Laboratory Standards Institute, Performance standards for antimicrobial susceptibility testing, 20th Informational Supplement, M100-S20 2010) The compounds were dissolved in 50% DMSO, and dilutions were performed using Muller-Hinton medium. An adequate final concentration was obtained to determine the minimum inhibitory concentrations (MICs). The concentration of DMSO was maintained below 5%. The inhibitors were tested for synergy with the third-generation β-lactams ceftazidime and cefotaxime against several clinical bacteria. The ratio of β-lactams to inhibitors was 1:4. Each value reported reflects the average of three independent experiments. […] The Friedman's test and the Wilcoxon signed rank test were used to compare MIC values. Statistical significance was established at p<0.05.

Data set [5] deals with T1, AmpC β-lactamase. The format is biochemical. The following applies: for type of inhibition: Lineweaver-Burk analysis, competition with substrate CENTA; for time dependence of inhibition (incubation effect, off-rate): enzyme incubation and dilution experiments.
In data set [6] the target is T3, Trypsin. As to the kind of experiment: Trypsin inhibition. The format is biochemical. The following applies: for Percentage activity with 100 μM inhibitor: Table 4b; for Percentage inhibition with 100 μM inhibitor: Table 4c; for potency estimated from few doses: read-out: IC50 (Estimated from single concentration measurement), Table 4e.
For data set [7], the system named is Trypsin. As to the kind of experiment: Trypsin inhibition. The format is biochemical. The note with it: Table 4h, Trypsin vs AmpC.
Where [8] appears, read: Ki (from multi- or single concentration measurements), Table 4g.
Setting [9] is: Table 8, read-out: Ki vs CTX-M-9.

T1 sequence (P00811 20-377): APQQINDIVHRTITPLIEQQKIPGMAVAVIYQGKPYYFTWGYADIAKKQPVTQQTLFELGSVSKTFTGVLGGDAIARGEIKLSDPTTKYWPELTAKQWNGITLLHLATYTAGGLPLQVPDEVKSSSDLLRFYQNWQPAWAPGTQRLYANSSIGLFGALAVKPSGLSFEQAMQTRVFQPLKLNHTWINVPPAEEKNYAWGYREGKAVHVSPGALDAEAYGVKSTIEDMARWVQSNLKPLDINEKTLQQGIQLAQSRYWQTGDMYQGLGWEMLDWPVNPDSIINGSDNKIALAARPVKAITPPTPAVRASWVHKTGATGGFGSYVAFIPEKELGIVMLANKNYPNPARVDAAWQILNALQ
CTX-M-9 β-lactamase, sequence (Q9L5C8 29-291): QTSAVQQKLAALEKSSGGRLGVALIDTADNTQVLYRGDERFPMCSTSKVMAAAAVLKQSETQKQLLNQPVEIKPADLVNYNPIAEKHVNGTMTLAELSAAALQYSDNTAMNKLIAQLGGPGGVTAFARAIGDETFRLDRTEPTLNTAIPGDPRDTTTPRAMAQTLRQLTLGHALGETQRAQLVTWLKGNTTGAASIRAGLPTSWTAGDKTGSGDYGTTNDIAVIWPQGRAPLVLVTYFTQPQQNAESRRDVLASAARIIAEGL

As a reminder, the pIC50 is −log10 of the IC50, conventionally taken in molar units. Low readings indicate a high IC50, high ones a low IC50. In general, inhibition refers to the change of the read-out against control, counted positive when it falls. With `O=C(O)c1cccc(CS(=O)(=O)NCB(O)O)c1` [CR167, [3-(Carboxyphenyl)methanesulfonylamino]methaneboronic acid], the pIC50 against AmpC β-lactamase [1] is 8.19; at CTX-M-9 β-lactamase, 6.90. Moreover, the pKi on AmpC β-lactamase [1] (Ki) was 8.89 to 9.10 and 8.89; at AmpC β-lactamase [1] (setting [8]) it was 8.89; at AmpC β-lactamase [1] (Ki Vs AmpC, Table 7) it was 8.89; at AmpC β-lactamase [1] (Ki vs AmpC, Table 8) it was 8.89; on AmpC β-lactamase [1] (Ki, Table 5), 8.89; at AmpC β-lactamase [1] (Ki, Table 10, AmpC), 8.89. Also, the pKi at CTX-M-9 β-lactamase (read-out: Ki) was 7.35; in data set [2], 2.61; at Trypsin [3] it was 3.46. Moreover, the Ligand efficiency at AmpC β-lactamase [1] (Table 5) is 0.66. Further, the “Selectivity vs AmpC (comparison of IC50 values)” value at CTX-M-9 β-lactamase was found to be 19; in data set [2], 1523077; with Elastase, 22139; in the data set on Trypsin [7], 292308. In addition, at CTX-M-9 β-lactamase (ratio of Ki values), the “selectivity towards AmpC versus CTX-M-9 β-lactamase” value is listed as approximately 30 fold. Also, the potency estimated from few doses at CTX-M-9 β-lactamase was 0.162 µM; in data set [2], 9900 µM; on Trypsin [6], 1900 µM. Also, the inhibition at 16 µM on CTX-M-9 β-lactamase was determined as 99%. Also, the activity at 100 µM in data set [2] came to 99%. For the same compound, in [2], the inhibition at 100 µM was found to be 1%. For the same compound, the “clinical isolates for which MICs dropped into the susceptible range (MICs≦1 μg/mL)” value (shortened to “clinical isolates”) in [4] is 75%. Besides, the “MIC 25% percentile” value in data set [4] amounted to 0.5 µg/mL. Besides, the “MIC 75% percentile” value in [4] was found to be 1.5 µg/mL. In addition, at AmpC β-lactamase [5], the type of inhibition result is recorded as “competitive”. In addition, the “time dependence of inhibition (incubation effect, off-rate)” value (“time dependence of inhibition” for short) at AmpC β-lactamase [5] was “incubation effect owing to slow off-rates”. Moreover, the “Percentage activity with 100 μM inhibitor” value on Trypsin [6] was found to be 95. In addition, the “Percentage inhibition with 100 μM inhibitor” value (from here on “Percentage inhibition”) at Trypsin [6] worked out at 5.
By melting point is commonly meant the temperature of the solid-liquid transition. `O=S(=O)(NCB(O)O)c1ccc(-c2nn[nH]n2)c(Cl)c1` [CR191, [3-chloro-4-(3-tetrazol-5-yl)benzensulfonylamino]methaneboronic acid]: the melting point was 195 to 198 °C (dec.). The compound also showed a pIC50 on AmpC β-lactamase [1] of 8.80. This compound gave a pKi on AmpC β-lactamase [1] (Ki) of 8.52. In addition, the pKi on AmpC β-lactamase [1] (setting [8]) was 8.52. The same compound gave a pKi on AmpC β-lactamase [1] (Ki Vs AmpC, Table 7) of 8.52. Besides, at AmpC β-lactamase [1] (Ki vs AmpC, Table 8), the pKi was 8.52. Moreover, the pKi at AmpC β-lactamase [1] (Ki, Table 5) is 8.52. This compound also gave a pKi on AmpC β-lactamase [1] (Ki, Table 10, AmpC) of 8.52. Besides, the Ligand efficiency on AmpC β-lactamase [1] (Table 5) is reported as 0.57. Further, at CTX-M-9 β-lactamase, the pIC50 is 5.15, the potency estimated from few doses was 7 µM and the inhibition at 16 µM stood at 70%. In addition, at CTX-M-9 β-lactamase (setting [9]), the pKi is 5.60. In addition, in data set [2], the activity at 100 µM came to 85%, the potency estimated from few doses is 567 µM, the pKi is 3.85 and the inhibition at 100 µM was determined as 15%. On Trypsin [3], this compound gave a pKi of 3.46. Besides, in data set [4], the “clinical isolates” value was 25%, the “MIC 25% percentile” value was determined as 1.0 µg/mL and the “MIC 75% percentile” value is 4.0 µg/mL. Besides, on AmpC β-lactamase [5], the type of inhibition entry is listed as “competitive” and the “time dependence of inhibition” value is recorded as “slow off-rate”. For the same compound, at Trypsin [6], the “Percentage activity with 100 μM inhibitor” value is reported as 95, the “Percentage inhibition” value came to 5 and the potency estimated from few doses was 1900 µM.
In the case of `O=S(=O)(NCB(O)O)c1ccc(-c2nnn[nH]2)cc1C(F)(F)F` [CR192, [4-(3-tetrazol-5-yl)-2-trifluoromethyl-benzensulfonylamino]methaneboronic acid], the pIC50 against AmpC β-lactamase [1] was 9.40; against CTX-M-9 β-lactamase, 5.30. The “time until substrate hydrolysis rates converge (equilibrium)” value at AmpC β-lactamase [1] (50 pM AmpC, 500 pM inhibitor, with or without 5 minutes pre-incubation) lay in the range of 10 to 15 min. Moreover, the pKi on AmpC β-lactamase [1] (Table 4g, read-out: Ki (from multi- or single concentration measurements)) was 10.30; at AmpC β-lactamase [1] (Table 5, read-out: Ki) it was 10.30; at AmpC β-lactamase [1] (Table 7, read-out: Ki Vs AmpC) it was 10.30; at AmpC β-lactamase [1] (Table 8, read-out: Ki vs AmpC), 10.30; on AmpC β-lactamase [1] (Table 10, AmpC, read-out: Ki), 10.30; at AmpC β-lactamase [1] (running text and FIG. 18, substrate CENTA 105 μM, read-out: Ki), 10.30. Also, the pKi on CTX-M-9 β-lactamase (setting [9]) was 5.74; in data set [2] it was 3.85; on Trypsin [3] it was 3.35. For the same compound, the Ligand efficiency at AmpC β-lactamase [1] (Table 5) is recorded as 0.60. The “improved affinity compared to CR157” value at AmpC β-lactamase [1] (ratio of Ki values) was 24 fold. Moreover, the “Selectivity vs AmpC (comparison of IC50 values)” value amounted to 11948 on CTX-M-9 β-lactamase, 1416667 in data set [2], 34091 in the data set with Elastase and 6000000 in the data set with Trypsin [7]. Moreover, the potency estimated from few doses on CTX-M-9 β-lactamase was 5 µM; in data set [2], 567 µM; at Trypsin [6], 2400 µM. Further, at CTX-M-9 β-lactamase, the inhibition at 16 µM was determined as 77%. For the same compound, the activity at 100 µM in data set [2] was found to be 85%. The inhibition at 100 µM in data set [2] was found to be 15%. The “clinical isolates” value in data set [4] came to 50%. The “MIC 25% percentile” value in [4] was determined as 1.0 µg/mL. In addition, in [4], the “MIC 75% percentile” value worked out at 2.0 µg/mL. Besides, at AmpC β-lactamase [5], the type of inhibition entry is recorded as “competitive”. Moreover, the “time dependence of inhibition” value on AmpC β-lactamase [5] was “slow off-rate”. Besides, the “Percentage activity with 100 μM inhibitor” value on Trypsin [6] worked out at 96. Also, at Trypsin [6], the “Percentage inhibition” value was 4.
Take `O=S(=O)(Cc1cccs1)NCB(O)O` [Compound 10]: the melting point lay within 185 to 188 °C.
